Test results reported in patent US20240376607A1, “METHOD AND COMPOSITION FOR TREATING DILUTION STEAM GENERATOR SYSTEMS” (BL Technologies, Inc., priority 2021, published 2024).
Entries after “also recorded” stand apart in the source; their conditions may differ.

Experiment: Electrochemical corrosion rate measurement (Rp/Ec trend) in DSG water
Conditions: DSG Water B, 100 ppm active
Description: Electrochemical measurements were carried out using Gamry 600+ Potentiostat coupled with DC105™ Corrosion Techniques Software. Experiments were performed with a conventional three-electrode electrochemical cell and by employing the Rp/Ec trend technique. All tests were carried out for 24 hours at pH=8.2 to 8.8 and at T=22±0.2° C. (maintained with a recirculating water bath). A Teflon® liner was used to avoid filmer loss to the corrosion cell. The corrosion rates are measured in milli-inch per year (mpy). Pre-cleaned low carbon steel (LCS) coupons having a total surface area of 2.95 in^2 and a density of 7.87 g/cm^3 were used for testing the corrosion inhibitor treatments.

In the case of octenyl succinic acid [OSA], the “corrosion inhibition (FIG. 1)” value (LCS coupons) is reported as “inhibit corrosion; also recorded: not as robust as the Polyamine sample” and the “corrosion rate (FIG. 2)” value (rate it increases to, 20 hours) is reported as 8 mpy.
